This passage reports TGI and GI50 results from PubChem BioAssay (NCI).

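Following 48 hours of exposure in 96-well plates, responses at five concentrations were used to interpolate endpoints linearly. Abbreviation: GI50, concentration required for 50% inhibition of growth. The concentration for full growth arrest is given as TGI.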 Some results are limits rather than exact numbers.

Assay in all cases: NCI anticancer screen, dose series, 48 h
In test [1] the test system is SNB-19 CNS.
Test [2] concerns SR leukemia.
The test system of test [3] is OVCAR-8 ovarian.
Test [4] concerns SNB-75 CNS.
The test system of test [5] is SF-295 CNS.
For test [6], the system named is HCT-116 colon.
Test [7] concerns SW-620 colon.
Test [8] has as its system PC-3 prostate.
In test [9] the test system is KM12 colon.
Test [10] concerns NCI-H460 lung.

Regarding `COc1cc2[nH]c(-c3ccccc3)cc(=O)c2cc1OC`, the TGI in test [1] was more than 100 µM; in test [2] it was more than 48.3 µM; in [3], more than 89.4 µM; in [4], more than 87.1 µM; in [5], more than 100 µM; in [6], more than 49.7 µM. For the same molecule, the TGI is more than 100 µM in [7], more than 100 µM in test [8], more than 74.9 µM in test [9] and more than 66.6 µM in test [10].
With `N#CC(c1ccccc1)c1cccc2ccccc12` (stereo not given), the TGI in test [1] was more than 100 µM; in test [2], 39.4 µM; in [3], 76.4 µM; in test [4] it was more than 100 µM; in test [5], more than 100 µM; in test [6], more than 100 µM. Further, the TGI in test [7] was more than 100 µM; in test [8], 71.6 µM; in [9], 66 µM; in test [10], more than 100 µM.
Consider `COc1ccc2c(c1)CC[C@@H]1[C@@H]2CC[C@]2(C)/C(=N/OCCN3CCCCC3)CC[C@@H]12`, for which the TGI worked out at 21 µM in [1]; 6.29 µM in [2]; 23.1 µM in test [3]; 18.2 µM in test [4]; 12.6 µM in [5]; 5.67 µM in test [6]. In addition, the TGI in test [7] was 20.3 µM; in test [8], 17.7 µM; in test [9] it was 13.2 µM; in test [10] it was 5.68 µM.
On to `Fc1cccc2nc(-c3ccccc3)cc(OCc3ccccc3)c12`, for which the TGI in test [1], in test [2], in test [3], in test [4], in test [5] and in test [6] was more than 100 µM in each case. Besides, the TGI in [7], in test [8], in test [9] and in [10] was more than 100 µM in each case.
As for `COc1ccc(-c2cn3c(n2)sc2cc(C)ccc23)cc1`, the TGI in test [1] is more than 100 µM; in test [2], more than 100 µM; in [3], 47.2 µM; in test [4], 37.3 µM; in [5], 52.5 µM; in [6], more than 100 µM. Also, the TGI was more than 100 µM in [7], 50.9 µM in test [8], more than 100 µM in test [9] and more than 100 µM in [10].
With `COc1ccc(-c2cn3ccnc3c(-c3ccc4ncn(C5CCCCC5)c4c3)n2)cc1`, the GI50 in [1] was 0.836 µM; in test [2] it was 0.89 µM; in test [3], 3.16 µM; in test [4], 0.733 µM; in test [6], 0.399 µM; in [7] it was 0.734 µM. The GI50 is 0.621 µM in [8], 1.35 µM in test [9] and 0.622 µM in test [10]. Also, the TGI is more than 100 µM in test [1]; more than 100 µM in test [2]; more than 100 µM in [3]; more than 100 µM in test [4]; 4.06 µM in test [6]; more than 100 µM in [7]. Also, the TGI in [8], in test [9] and in test [10] was more than 100 µM in each case.
For `COc1cc(C2c3cc4c(cc3OC(N3CCOCC3)C2C)OCO4)cc(OC)c1O` (stereo not given), the TGI in [1] is more than 75.1 µM; in test [2] it was more than 35.1 µM; in test [3], more than 56.7 µM; in test [4], 7.64 µM; in [5] it was 15.8 µM; in [6], 11.4 µM. The TGI in [7] was more than 59.6 µM; in test [8], more than 86.2 µM; in test [9], more than 100 µM; in [10], more than 100 µM.
In the case of `O=C1/C(=C/c2cccs2)N=C(c2ccccc2)N1C1Nc2cc3c(cc2S1)NC(N1C(=O)/C(=C/c2cccs2)N=C1c1ccccc1)S3` (stereo not given), the TGI is 31 µM in test [2]; 47.2 µM in test [3]; 83.2 µM in [4]; more than 100 µM in [5]; 56 µM in test [6]; more than 100 µM in test [7]. Moreover, the TGI in test [8], in test [9] and in test [10] was more than 100 µM in each case.
`CN(C)Cc1cc(C(=O)/C=C/c2ccc(/C=C/C(=O)c3cc(CN(C)C)c(O)c(CN(C)C)c3)cc2)cc(CN(C)C)c1O`: the TGI in [1] was more than 100 µM; in test [2] it was more than 100 µM; in [3] it was more than 100 µM; in [4], more than 100 µM; in test [5] it was more than 100 µM; in test [6], 34 µM. Also, the TGI in [7] amounted to 54.7 µM; in [8], 49.6 µM; in [9], 56.3 µM.
On to `C=C(Br)CN(C#N)CC(=C)Br`, for which the TGI in test [1], in test [2], in test [3], in [4], in [5] and in test [6] was more than 100 µM each time. Further, the TGI in [7], in [8], in [9] and in test [10] was more than 100 µM each time.
As for `O=C1CC(c2cccc(Cl)c2)n2cccc21` (stereo not given), the TGI in test [1], in test [2], in test [3], in test [4], in [5] and in test [6] was more than 100 µM each time. The TGI in [7], in test [8] and in test [9] was more than 100 µM each time.
With `O=C(O)C(Cc1cccs1)C(=O)O`, the TGI in [1], in [2], in test [3], in [4], in test [6] and in test [7] was more than 100 µM in each case. For the same molecule, the TGI in test [8], in [9] and in test [10] was more than 100 µM each time.
For the molecule `OC1CN=C2c3ccccc3C(O)(c3ccc(Cl)cc3)N2C1` (stereo not given), the TGI was more than 100 µM in [1]; more than 100 µM in [2]; more than 100 µM in [3]; 91.9 µM in [4]; more than 100 µM in test [6]; more than 100 µM in test [7]. The TGI in test [8], in [9] and in [10] was more than 100 µM throughout.
Regarding `COc1cccc(/C=C/C2=NN(c3cccc(S(=O)(=O)O)c3)C3(C2)SCC(=O)N3c2nc3ccccc3s2)c1` (stereo not given), the TGI in [1] was more than 100 µM; in test [2] it was 62.9 µM; in [3], more than 100 µM; in test [4] it was more than 100 µM; in test [6], more than 100 µM; in [7], more than 100 µM. Further, the TGI in test [8], in test [9] and in test [10] was more than 100 µM throughout.
On to `S=C1CC(c2ccc(Cl)cc2)Sc2ccccc2N1` (stereo not given), for which the TGI is 94 µM in test [1]; more than 100 µM in test [2]; more than 100 µM in test [3]; more than 10 µM in test [4]; more than 100 µM in test [5]; more than 100 µM in test [6]. Also, the TGI in test [8], in test [9] and in test [10] was more than 100 µM in each case.
For the molecule `O=C(CSc1nc2ccc(I)cc2c(=O)n1Cc1ccccc1)Nc1ccc(Br)cc1`, the TGI in test [1] is more than 100 µM; in test [2], 27.4 µM; in [3] it was 36.2 µM; in [4], 36.6 µM; in [5], more than 100 µM; in test [6] it was more than 100 µM. Also, the TGI was more than 100 µM in test [7], 58.6 µM in [8] and more than 100 µM in [9].
For the molecule `CCCCCCCCOCC1S(=O)(=O)OCCOS1(=O)=O`, the TGI in test [1], in [2], in [3], in [4], in [5] and in test [6] was more than 100 µM throughout. Further, the TGI in [7], in test [8] and in test [10] was more than 100 µM in each case.
Regarding `CCOC(=O)/C(=C\c1ccc(CO)o1)P(=O)(OCC)OCC`, the TGI in test [1] was more than 100 µM; in test [2], 71.6 µM; in test [4], more than 100 µM; in test [5], more than 100 µM; in test [6], 43.8 µM; in [7] it was 60.9 µM. In addition, the TGI in [8] was more than 100 µM; in test [9], more than 100 µM; in [10] it was 32.6 µM.
Turning to `Cc1ccc2[nH]c(=O)c(-c3cnc(=O)[nH]n3)c(O)c2c1`, the TGI in [2], in test [3], in test [4], in test [5], in test [6] and in test [7] was more than 100 µM each time. Besides, the TGI in [8], in test [9] and in [10] was more than 100 µM in each case.
In the case of `Cc1cc2ccccc2c[n+]1CC(=O)CC([O-])(C(F)(F)F)C(F)(F)F`, the TGI in test [1], in test [2], in [3], in test [4], in test [5] and in [6] was more than 100 µM each time. The TGI in [7], in test [8] and in test [10] was more than 100 µM each time.
As to `CSc1n[n+](C)cc(N)c1N`, the TGI in [1] was 97.7 µM; in test [2], more than 100 µM; in [3] it was more than 100 µM; in test [4], more than 100 µM; in test [5] it was more than 100 µM; in [6] it was more than 100 µM. The TGI in test [7], in test [8] and in [9] was more than 100 µM in each case.
